d = 2'-deoxy (DNA); r = 2'-OH (RNA)

Data set [1] relates to 3p or 5p miR34a target-site in 3′ UTR of Renilla luciferase. The data set is described as follows: Dual glo assay of miR34a strand selection in HCT116 cells. The note with it: 50 nM miRNA, 300 ng plasmid, RNAiMAX, 24 h. Type of data set: cell-based, human. The procedure: For all experiments RNAiMAX was used for transfection of both plasmid and miRNA in accordance with manufacturer's instructions, but with altered RNA and plasmid concentrations. For Dual glo assay, cells were co-transfected with 50 nM miRNA and 300 ng plasmid. For qPCR cells were transfected with 100 nM miRNA.
HCT116 cells were seeded 10000 cells per well in a 96 well plate and transfected with both plasmid and miRNA 24 hours later. All transfections were performed in triplicates. The plasmids used were the dual luciferase reporter plasmid with either a 3p or 5p miR34a target-site cloned into the 3′ UTR (denoted plasmid 3 or plasmid 5). After 24 hours 75 μl of Dual glo firefly substrate (Promega) was added to each well. 100 μl of cell-lysate was moved to a microtiter plate after 10 minutes of incubation and luminescence was measured and it was followed by addition of 75 μl of Stop glo Renilla substrate (Promega) to the same plate and luminescence was measured again after 10 minutes of incubation. The Renilla luminescence values were normalized against the firefly luminescence values and expressed as a percentage of the negative control, a scrambled non-functional miRNA.
Dual glo assay and RT-qPCR were performed to identify the degree of strand selection of the modified miRNA. First, we designed two different plasmids (psiCheck2 vector) such that miRNA target-sequence (3p or 5p) is cloned into the 3′-UTR of the Renilla luciferase gene (see FIG. 16) with firefly luciferase as the internal control to normalize the Renilla luciferase expression. We estimated the levels of the individual strand recruitment (3p or 5p) using the dual-glo luminesce assay. The target-sequence corresponds exactly to either the 3p or 5p strands, and a change in luminescence can be directly attributed to the gene silencing efficiency.
Four independent trials of dual glo assay were performed, with each of the samples in triplicates. Luminescence is shown as a percentage of the scrambled miRNA which serves as the negative control. Two different modifications were used on each of the strands of the miR34a (see Table 5). The miR34a was modified to make the 5p strand the guide strand by incorporating three deoxy thymidine residues at the 3′ end of the 3p strand (mod5a).

In another data set the test system is MG63 cells. The experiment in a line: Fluorescence / confocal microscopy of cellular distribution in MG63 cells. Type of data set: cell-based, human. The note with it: fluorescently labelled, transfection reagent free. On the procedure: Cellular uptake experiments were performed by plating cells (1×10^4) in an 8 well chamber slide. At 70% confluency, the cells were transfected with 50 nM Cy3-cpRNA and incubated at 37° C. for 24 h. Control wells were left untreated. Each transfection was performed in triplicate. […] The slides were mounted using Vectashield mounting medium containing 4′, 6-diamidino-2-phenylindole (DAPI) (Vector Labs, Burlingame, Calif.) to stain the nuclei of cells.
MG63—human osteosarcoma cells were cultured in α-MEM (Sigma-Aldrich, Haverhill, UK) medium containing 10% FBS, 1% L-Glutamine, and 1% antibiotics (PeSt) at 37° C. with 5% CO2. One day prior to the siRNA treatment, 35,000 cells were plated per each well of a 24-well plate. On the experiment day, cells were replaced with 10% heat inactivated-FBS containing α-MEM medium with 1% L-Glutamine, and 1% antibiotics (PeSt). Fluorescently (Cy3) labelled CP-siRNA and nicked CP-siRNA having GAPDH targeting sequence (final concentration: 50 nM) was given to the each well. After 24 hours the cells were washed with PBS and fixed with 4% formaldehyde for 20 mins at room temperature and then washed twice with PBS. DAPI (1 ug/ml in PBS) was added to cells for 5 mins and then washed with PBS. The cells were then visualized in Nikon TiU at 20×+1.5× and analysed with the Nikon Imaging software.

A further data set relates to Ctnnb1 (β-Catenin). The data set is described as follows: Ctnnb1 expression in MC3T3-E1 cells by quantitative RT-PCR. Type of data set: cell-based, mouse. The procedure:
MC3T3-E1 cells were cultured in α-MEM (Sigma-Aldrich, Haverhill, UK) medium containing 10% FBS, 1% L-Glutamine, and 1% antibiotics (PeSt) at 37° C. with 5% CO2. One day prior to the miRNA treatment, 35,000 cells were plated per each well of a 24-well plate. On the experiment day, cells were replaced with 2% heat inactivated-FBS containing α-MEM medium with 1% L-Glutamine, and 1% antibiotics (PeSt). miR-34a-CP (final concentration: 50 nM) was given to the each well. Mirvana scrambled miRNA mimic was used as a negative control.
After 24 hours of transfection, and incubation, RNA extraction was performed by using miRCURY RNA Isolation Kit—Cell and Plant (#300100) and protocol from Exiqon, Vedbæk, Denmark. RNA samples were treated with DNase for 30 minutes at 37 degrees, thereafter inactivated with a DNase inactivation solution (TUTRBO DNase AM2238 thermofisher). Thereafter, RNA concentrations were measured using NanoDrop ND-1000 from NanoDrop Technologies, Wilmington, Del.
The cDNA was made from the total RNA using High Capacity cDNA reverse transcription kit (Applied Biosystems, USA). Reactions were performed on a 96-well Bio-Rad Thermal Cycler PCR System at 37° C. for 60 minutes, and at 95° C. for 5 min respectively. Real-time PCR reactions were performed as follows: 10 μl of 2×TaqMan® Universal PCR Master Mix, no AmpErase® UNG (Applied Biosystems, USA), 9 μl 1:5 diluted cDNA, and 1 μl of TaqMan gene specific assay mix. Final volume of the reaction mix was 20 uL. Internal control gene beta-actin (ACTB) (Applied Biosystems, USA) was selected as control for normalization of TaqMan data. The qRT-PCR reaction comprised a non-template control of cDNA in order to rule out any non-specific reading. Taqman probes for Ctnnb1, Sox9, Actb, were obtained from Applied Biosystems. The qRT-PCR amplification was carried out using the Bio-Rad qRT-PCR Thermocycler.
In order to achieve the transfection reagent free delivery of therapeutically potential microRNAs, we tested miR-34a and compared with miR-34a-CP. Since microRNAs unlike siRNAs have multiple targets in the cell, and there is a necessity to reduce the off-target and undesirable effects if any, we have also designed siRNA model siR-34a-CP as stated above. We have used mouse preosteoblast cell line MC3T3-E1 obtained from calvarial bone for the in-vitro functional validation of cell-penetrating molecules. On the day before transfection experiment, 35000 MC3T3-E1 cells were cultured per each well of the 24-well culture plate in alpha-Minimum Essential Medium with 10% heat inactivated FBS, 1% L-Glutamine, 1% antibiotics (Pe/St). […] 5% CO2. Thereafter, RNA extraction, cDNA preparation, and quantitative real-time PCR was performed by using TaqMan procedure.

With “mod3a: miR34a with three deoxy thymidines added to 3′ end of 5p strand, SEQ ID NO: 20 and 35 (chain 1 CAAUCAGCAAGUAUACUGCCCU; chain 2 UGGCAGUGUCUUAGCUGGUUGUTTT; chain 1: RNA, backbone not given here; chain 2: sugars from the 5' end r22 d3, backbone not given here)”, the “strand selection (Dual glo luminescence)” value in data set [1] is “slight increase in strand selection but this was not statistically significant”.

As for “nicked CP-siRNA: Nicked GAPDH CP-siRNA, sense SEQ ID NO: 28, nicked antisense sequences a and b SEQ ID NO: 29 and 30 (sense CCGAGCCACAUCGCUCAGATTTTT; antisense 1 UCUGAGCGAU; antisense 2 GUGGCUCGG; sense: sugars from the 5' end r19 d5, backbone not given here; antisense 1: RNA, backbone not given here; antisense 2: RNA, backbone not given here; further chemistry not fully specified)”, the cellular distribution result in the data set on MG63 cells is “some nuclear localization”.

As to “mod5a: miR34a with three deoxy thymidines added to 3′ end of 3p strand, SEQ ID NO: 37 and 21 (chain 1 CAAUCAGCAAGUAUACUGCCCUTTT; chain 2 UGGCAGUGUCUUAGCUGGUUGU; chain 1: sugars from the 5' end r22 d3, backbone not given here; chain 2: RNA, backbone not given here)”, the “strand selection (Dual glo luminescence)” value in data set [1] was 3p strand being less chosen as the guide strand.

For “CP-siRNA: GAPDH CP-siRNA, sense SEQ ID NO: 26 with dT5, antisense SEQ ID NO: 27; Cy3 labelled for imaging (sense CCGAGCCACAUCGCUCAGATTTTT; antisense UCUGAGCGAUGUGGCUCGGTT; sense: sugars from the 5' end r19 d5, backbone not given here; antisense: sugars from the 5' end r19 d2, backbone not given here; Cy3 label)”, the cellular distribution result with MG63 cells is “perinuclear distribution”.

Turning to “siR-34a-CP: Cell penetrating siRNA analog of miR-34a, sense SEQ ID NO: 24 with dA5, antisense SEQ ID NO: 25 (sense AAUCAGCUAAGUAUACUGCCAAAAAA; antisense UGGCAGUGUACUUAGCUGGUUGU; sense: sugars from the 5' end r21 d5, backbone not given here; antisense: RNA, backbone not given here)”, the Ctnnb1 expression result in the data set with Ctnnb1 (β-Catenin) (50 nM, 24 h, alone without transfection reagent (FIG. 11)) is “up regulation of Ctnnb1”; in the data set on Ctnnb1 (β-Catenin) (without transfection reagent MaTra (FIG. 12)) it was “up regulation of Ctnnb1”.

For the substance “mod5b: miR34a with five deoxy thymidines added to 3′ end of 3p strand, SEQ ID NO: 38 and 21 (chain 1 CAAUCAGCAAGUAUACUGCCCUTTTTT; chain 2 UGGCAGUGUCUUAGCUGGUUGU; chain 1: sugars from the 5' end r22 d5, backbone not given here; chain 2: RNA, backbone not given here)”, in data set [1], the “strand selection (Dual glo luminescence)” value is reported as 3p strand being less chosen as the guide strand.

Take “mod3b: miR34a with five deoxy thymidines added to 3′ end of 5p strand, SEQ ID NO: 20 and 36 (chain 1 CAAUCAGCAAGUAUACUGCCCU; chain 2 UGGCAGUGUCUUAGCUGGUUGUTTTTT; chain 1: RNA, backbone not given here; chain 2: sugars from the 5' end r22 d5, backbone not given here)”: in data set [1], the “strand selection (Dual glo luminescence)” value is “slight increase in strand selection but this was not statistically significant”.

(Values after US20180265867A1, “NUCLEIC ACID MOLECULES WITH ENHANCED ACTIVITY” (priority 2015, published 2018).)
